Reference: PubChem BioAssay AID2060617 (Molecular Pharmacology Branch, DTP, NCI, 2025)
“And” between values parts separate entries of the source, which are not always exact repeats. Equal values may be shown once.

System: 485368-065-R4-J2-PDC spheroids with HUVEC/MSC, viability
Test: Anticancer human tumor 485368-065-R4-J2-PDC patient-derived pancreatic carcinoma cell line growth inhibition [CLK]
Details: for viability, T/C: stronger effect = lower value
Procedure, shortened: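 Multi-cell-type spheroids combined patient-derived tumor cells with HUVEC endothelial cells and human mesenchymal stem cells. Paired agents were dosed in half-log steps down from about clinical Cmax, or from 10 microM where Cmax was unknown.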

[1] = curve of first compound, second compound 0.0316 µM
[2] = curve of first compound, second compound 0.1 µM
[3] = curve of first compound, second compound 0.316 µM
[4] = curve of first compound, second compound 1 µM
[5] = curve of first compound, second compound 3.16 µM
[6] = curve of first compound, second compound 10 µM
[7] = second compound 0.0316 µM, first compound 0.0316 µM
[8] = second compound 0.0316 µM, first compound 0.1 µM
[9] = second compound 0.0316 µM, first compound 0.316 µM
[10] = second compound 0.0316 µM, first compound 1 µM
[11] = second compound 0.0316 µM, first compound 3.16 µM
[12] = second compound 0.0316 µM, first compound 10 µM
[13] = second compound 0.1 µM, first compound 0.0316 µM
[14] = second compound 0.1 µM, first compound 0.1 µM
[15] = second compound 0.1 µM, first compound 0.316 µM
[16] = second compound 0.1 µM, first compound 1 µM
[17] = second compound 0.1 µM, first compound 3.16 µM
[18] = second compound 0.1 µM, first compound 10 µM
[19] = second compound 0.316 µM, first compound 0.0316 µM
[20] = second compound 0.316 µM, first compound 0.1 µM
[21] = second compound 0.316 µM, first compound 0.316 µM
[22] = second compound 0.316 µM, first compound 1 µM
[23] = second compound 0.316 µM, first compound 3.16 µM
[24] = second compound 0.316 µM, first compound 10 µM
[25] = second compound 1 µM, first compound 0.0316 µM
[26] = second compound 1 µM, first compound 0.1 µM
[27] = second compound 1 µM, first compound 0.316 µM
[28] = second compound 1 µM, first compound 1 µM
[29] = second compound 1 µM, first compound 3.16 µM
[30] = second compound 1 µM, first compound 10 µM
[31] = second compound 3.16 µM, first compound 0.0316 µM
[32] = second compound 3.16 µM, first compound 0.1 µM
[33] = second compound 3.16 µM, first compound 0.316 µM
[34] = second compound 3.16 µM, first compound 1 µM
[35] = second compound 3.16 µM, first compound 3.16 µM
[36] = second compound 3.16 µM, first compound 10 µM
[37] = second compound 10 µM, first compound 0.0316 µM
[38] = second compound 10 µM, first compound 0.1 µM
[39] = second compound 10 µM, first compound 0.316 µM
[40] = second compound 10 µM, first compound 1 µM
[41] = second compound 10 µM, first compound 3.16 µM
[42] = second compound 10 µM, first compound 10 µM
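Note: spheroids exposed to compounds for seven days.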
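Throughout, for viability, T/C: 100% = DMSO vehicle control wells.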

## CC1COCCN1c1cc(C2(S(C)(=N)=O)CC2)nc(-c2ccnc3[nH]ccc23)n1 (stereo not drawn) + CNC(=O)c1ccc(Nc2nc(OC3CCCC3)c3c(-c4ccc5nc(C)oc5c4)c[nH]c3n2)c(OC)c1
[1]
  IC50: > 10 µM
[2]
  IC50: > 10 µM
[3]
  IC50: > 10 µM
[4]
  IC50: > 10 µM
[5]
  IC50: > 10 µM
[6]
  IC50: > 10 µM
[7]
  viability, T/C: 82.7%
[8]
  viability, T/C: 96%
[9]
  viability, T/C: 102%
[10]
  viability, T/C: 101%
[11]
  viability, T/C: 99.2%
[12]
  viability, T/C: 107%
[13]
  viability, T/C: 91.1%
[14]
  viability, T/C: 95.1%
[15]
  viability, T/C: 101%
[16]
  viability, T/C: 97.6%
[17]
  viability, T/C: 102%
[18]
  viability, T/C: 97.4%
[19]
  viability, T/C: 84.7%
[20]
  viability, T/C: 85%
[21]
  viability, T/C: 75.9%
[22]
  viability, T/C: 89.7%
[23]
  viability, T/C: 90.3%
[24]
  viability, T/C: 82%
[25]
  viability, T/C: 80.3%
[26]
  viability, T/C: 78%
[27]
  viability, T/C: 72.6%
[28]
  viability, T/C: 81.2%
[29]
  viability, T/C: 90.1%
[30]
  viability, T/C: 73.4%
[31]
  viability, T/C: 76.3%
[32]
  viability, T/C: 78.2%
[33]
  viability, T/C: 68%
[34]
  viability, T/C: 72.7%
[35]
  viability, T/C: 68.7%
[36]
  viability, T/C: 54.1%
[37]
  viability, T/C: 74%
[38]
  viability, T/C: 70.6%
[39]
  viability, T/C: 62.2%
[40]
  viability, T/C: 71.6%
[41]
  viability, T/C: 69%
[42]
  viability, T/C: 59.6%

## COc1cccc2c1C(=O)c1c(O)c3c(c(O)c1C2=O)CC(O)(C(=O)CO)CC3OC1CC(N)C(O)C(C)O1 (stereo not drawn)
Compound 0.0316 µM
  viability, T/C: 98.8% and 100%
Compound 0.1 µM
  viability, T/C: 102% and 91.6%
Compound 0.316 µM
  viability, T/C: 67.6% and 66.2%
Compound 1 µM
  viability, T/C: 35% and 37.2%
Compound 3.16 µM
  viability, T/C: 7.33% and 9.65%
Compound 10 µM
  viability, T/C: 19.4% and 24.4%
Curve of compound
  IC50: 0.574 µM and 0.566 µM

## Cn1ncnc1[C@H]1c2n[nH]c(=O)c3cc(F)cc(c23)N[C@@H]1c1ccc(F)cc1
Compound 0.000316 µM
  viability, T/C: 94.6% and 84.6%
Compound 0.001 µM
  viability, T/C: 88.2% and 97.3%
Compound 0.00316 µM
  viability, T/C: 100% and 92.9%
Compound 0.01 µM
  viability, T/C: 94.7% and 89.8%
Compound 0.0316 µM
  viability, T/C: 94.3% and 105%
Compound 0.1 µM
  viability, T/C: 97.9% and 98.6%
Curve of compound
  IC50: > 0.1 µM

## CC(CO)NC(=O)c1cc(-c2ccc(Cl)cc2)nn(-c2cnn(C)c2)c1=O (stereo not drawn) + CNC(=O)c1ccc(Nc2nc(OC3CCCC3)c3c(-c4ccc5nc(C)oc5c4)c[nH]c3n2)c(OC)c1
[1]
  IC50: > 10 µM
[2]
  IC50: > 10 µM
[3]
  IC50: > 10 µM
[4]
  IC50: > 10 µM
[5]
  IC50: > 10 µM
[6]
  IC50: > 10 µM
[7]
  viability, T/C: 87.9%
[8]
  viability, T/C: 94.3%
[9]
  viability, T/C: 87.9%
[10]
  viability, T/C: 101%
[11]
  viability, T/C: 89.8%
[12]
  viability, T/C: 103%
[13]
  viability, T/C: 90.5%
[14]
  viability, T/C: 97%
[15]
  viability, T/C: 93.6%
[16]
  viability, T/C: 103%
[17]
  viability, T/C: 92.8%
[18]
  viability, T/C: 97.8%
[19]
  viability, T/C: 82.8%
[20]
  viability, T/C: 84.2%
[21]
  viability, T/C: 82.5%
[22]
  viability, T/C: 75.4%
[23]
  viability, T/C: 86.4%
[24]
  viability, T/C: 85.9%
[25]
  viability, T/C: 83.7%
[26]
  viability, T/C: 69.9%
[27]
  viability, T/C: 73.3%
[28]
  viability, T/C: 73.9%
[29]
  viability, T/C: 70.2%
[30]
  viability, T/C: 77.1%
[31]
  viability, T/C: 72.3%
[32]
  viability, T/C: 67.2%
[33]
  viability, T/C: 71%
[34]
  viability, T/C: 70.6%
[35]
  viability, T/C: 69.3%
[36]
  viability, T/C: 76%
[37]
  viability, T/C: 64.9%
[38]
  viability, T/C: 71.2%
[39]
  viability, T/C: 69.6%
[40]
  viability, T/C: 66.6%
[41]
  viability, T/C: 72.8%
[42]
  viability, T/C: 70.7%
